US20070179137A1, “Screening of anti-viral drugs and pharmaceuticals composition containing thiazolidinone derivatives” (priority 2004, published 2007)
Values after ≈ are worked out from the molar mass of the structure shown. Values belong to the compound of their own block, whether it stands above or below them.

How the values were obtained:
heparin = test: Direct interaction of inhibitor compounds with immobilized heparin (pre-incubation versus co-incubation with GBVP); assay type: binding; conditions: for Inhibition (%) Co-incubation: GBVP co-incubated with compound for 90 min in control wells; for Inhibition (%) Pre-Incubation: compound pre-incubated with immobilized heparin 90 min, washed, then GBVP added
Procedure: Compounds found to be suitable for further development and chemical optimization may be further subjected to a second screening, identifying those that directly bind to heparin. Individual compounds are incubated with immobilized heparin in the absence of CMV envelope glycoprotein B. After washing of the plates to remove all unbound compound, CMV envelope glycoprotein B is added. At this time, in separate wells, CMV envelope glycoprotein B is co-incubated with the test compounds and the standard assay protocol is followed. Test compounds which bind directly and irreversibly to heparin are identified by comparing the results of pre-incubation versus co-incubation experiments.
96-well ELISA plates are coated with Heparin-BSA, then blocked with BSA as described in Example 1. GBVP Hit Compounds, at final concentration 0.1-200 μM, are incubated in the ELISA plate for 90 min, and then washed with incubation buffer. After washing, GBVP is added to the wells pre-incubated with compounds. At the same time, in separate control wells, GBVP is co-incubated with Hit Compounds for 90 min. Following the incubation, GBVP bound to the plate is quantified by antibody conjugated to horse radish peroxidase and OD measurement as described in Example 1.

[1] = test system: Varicella Zoster Virus (VZV); test: Cytopathic effect (CPE) inhibition assay on Varicella Zoster Virus in HFF cells; assay type: cell-based; conditions: Human alphaherpesvirus 3, HFF, 240 h, ten days incubation
Procedure: Cytopathic effect (CPE) inhibition assays were performed on Varicella Zoster Virus (VZV) as follows. Low passage human foreskin fibroblast (HFF) cells were seeded into 96-well tissue culture plates 24 hours prior to use at a cell concentration of 2.5×10^5 cells per ml in 0.1 ml of MEM supplemented with 10% FBS. The cells were then incubated for 24 hours at 37° C. in a C02 incubator. After incubation, the medium was removed and 125 μl of candidate drug in growth medium (MEM with 10% FBS) was added to the first row in triplicate wells, all other wells containing 100 μl of media. The drug in the first row of wells was then diluted serially 1:5 throughout the remaining wells by transferring 25 μl using the Cetus liquid handling machine. After dilution of drug, 100 μl growth medium containing virus (2500 PFU per well) was added to each well, excluding cell control wells, which received 100 μl of growth medium only. The plates were then incubated at 37° C. in a CO2 incubator for ten days. After the incubation period, media was aspirated and the cells stained with a 0.1% crystal violet solution for four hours. The stain was then removed and the plates rinsed using tap water until all excess stain was removed. The plates were allowed to dry for 24 hours and then read on a BioTek plate reader at 620 nm. […]

[2] = Neutral red uptake cytotoxicity assay; conditions: human
[3] = test system: bovine viral diarrhea virus; test: Inhibition of bovine viral diarrhea virus in MDBK cells; assay type: cell-based
Source text: (§1) Bovine viral diarrhea virus is related to HCV and may serve as a surrogate model for human hepatitis C virus (Yanagida K., et al., ibid).

[4] = Cytotoxicity in MDBK cells (IC50 used for SI); assay type: cell-based; conditions: bovine, MDBK (Madin-Darby bovine kidney) cells, value paired with EC50 to give SI
Source text: as §1

[5] = target: T1, CMV envelope glycoprotein B binding to immobilized heparin (Human cytomegalovirus, UniProt P06473); test: Inhibition of CMV envelope glycoprotein B binding to immobilized heparin by soluble heparin; conditions: soluble heparin 0.2-10 mg/ml, FIG. 2
T1 construct: purchased Research Diagnostics, INC; RDI-RCMVAG-B
T1 sequence (P06473 32-906): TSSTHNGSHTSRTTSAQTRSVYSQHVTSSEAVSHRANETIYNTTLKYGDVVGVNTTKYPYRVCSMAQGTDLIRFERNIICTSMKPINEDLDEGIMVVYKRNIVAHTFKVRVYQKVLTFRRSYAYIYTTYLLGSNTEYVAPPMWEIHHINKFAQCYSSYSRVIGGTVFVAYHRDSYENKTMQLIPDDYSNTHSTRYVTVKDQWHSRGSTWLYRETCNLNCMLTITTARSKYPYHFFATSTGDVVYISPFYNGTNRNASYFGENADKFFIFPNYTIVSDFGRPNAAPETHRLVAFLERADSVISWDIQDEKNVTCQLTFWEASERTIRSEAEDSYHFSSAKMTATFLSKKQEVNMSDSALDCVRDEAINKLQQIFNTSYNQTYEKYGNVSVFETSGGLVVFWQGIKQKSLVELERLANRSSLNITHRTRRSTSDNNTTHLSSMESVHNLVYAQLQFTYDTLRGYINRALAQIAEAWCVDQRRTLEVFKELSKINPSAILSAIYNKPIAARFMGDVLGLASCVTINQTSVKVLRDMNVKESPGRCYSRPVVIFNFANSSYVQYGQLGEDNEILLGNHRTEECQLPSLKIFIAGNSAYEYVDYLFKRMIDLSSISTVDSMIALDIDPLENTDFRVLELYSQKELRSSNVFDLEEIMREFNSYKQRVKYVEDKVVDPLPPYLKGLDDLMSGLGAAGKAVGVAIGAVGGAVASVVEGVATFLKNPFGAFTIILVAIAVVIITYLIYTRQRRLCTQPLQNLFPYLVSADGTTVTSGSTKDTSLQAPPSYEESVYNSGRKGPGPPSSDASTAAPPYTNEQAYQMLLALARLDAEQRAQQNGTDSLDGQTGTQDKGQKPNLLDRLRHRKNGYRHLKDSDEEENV
Source text: The present invention discloses for the first time the use of CMV envelope glycoprotein B for compound screening and for direct targeting of GAG binding sites. The screening method of the present invention is based on an ELISA assay for CMV envelope glycoprotein B interaction with heparin on 96-well plates, suitable for screening compound collections, newly developed by the inventors of the present invention. The assay measures binding of CMV envelope glycoprotein B to immobilized heparin. The amount of bound CMV envelope glycoprotein B is determined by an ELISA assay using a monoclonal antibody conjugated to horseradish peroxidase. […] Soluble heparin was found according to the present invention to inhibit CMV envelope glycoprotein B binding to immobilized heparin (FIG. 2). This method can be used with other specific GBVPs such as HSV-1 glycoproteins B, C, and D, HHV-7 glycoprotein B, and HCV envelope protein. Additionally, other GAGs are capable of replacing heparin in this kind of assay. […]
Porcine intestinal mucosa heparin conjugated to Bovine Serum Albumin (Heparin-BSA; Sigma Cat. No. H0403) at 5 mg/ml in Phosphate Buffered Saline (PBS; pH 6.5) was added to a 96-well polystyrene ELISA plate (NLNC Cat. No. 442404; 0.1 ml per well) and incubated over night at 4° C. […] The Optical Density (OD) of the samples was measured at 450 nm using an ELISA plate reader (Dynatech MR5000).

Compound: Cc1ccc2nc(N3CCN(C)CC3)c(C=C3SC(=S)N(Cc4ccccc4)C3=O)c(=O)n2c1 [Compound 5, 4H-Pyrido[1,2-a]pyrimidin-4-one, 3-[(3-phenylmethyl-4-oxo-2-thioxo-5-thiazolidinylidene)methyl]-2-(4-methyl-1-piperazinyl)-7-methyl-]
- Inhibition (%) Co-incubation (heparin): 66%
- Inhibition (%) Pre-Incubation (heparin): 68%

Compound: CCCCN1C(=O)/C(=C/c2c(N3CCN(C)CC3)nc3c(C)cccn3c2=O)SC1=S [Compound 10, 4H-Pyrido[1,2-a]pyrimidin-4-one, 3-[(3-butyl-4-oxo-2-thioxo-5-thiazol-idinylidene)methyl]-9-methyl-2-(4-methyl-1-piperazinyl)-]
- Inhibition (%) Co-incubation (heparin): 80%
- Inhibition (%) Pre-Incubation (heparin): 73%
- EC50 [1]: 3.2 µg/mL (≈ 6.99 µM)
- CC50 at 7 days [2]: 11.8 µg/mL (≈ 25.8 µM)

- EC50 [1]: < 0.03 µg/mL
Compound: O=C(CN1C(=O)C(=C2SC(=S)N(CCS(=O)(=O)O)C2=O)c2ccccc21)Nc1cccc(C(F)(F)F)c1 [Compound 11, 5-[1,2-dihydro-2-oxo-1-[2-oxo-2-[[3-(trifluoromethyl)phenyl]amino]ethyl]-3H-indol-3-ylidene]-4-oxo-2-thioxo-3-thiazolidineethanesulfonic acid]
- CC50 at 7 days [2]: > 100 µg/mL

Compound: O=C1C(=Cc2c(NCCCn3ccnc3)nc3ccccn3c2=O)SC(=S)N1Cc1ccccc1 [Compound 25, 4H-Pyrido[1,2-a]pyrimidin-4-one, 3-[(3-phenylmethyl-4-oxo-2-thioxo-5-thiazolidinylidene)methyl]-2-[[3-(1H-imidazol-1-yl)propyl]amino]-]
- Inhibition (%) Co-incubation (heparin): 67%
- Inhibition (%) Pre-Incubation (heparin): 89%

Compound: Cc1cccn2c(=O)c(C=C3SC(=S)N(Cc4ccccc4)C3=O)c(NCCN3CCOCC3)nc12 [Compound 26, 4H-Pyrido[1,2-a]pyrimidin-4-one, 3-[[3-(phenylmethyl)-4-oxo-2-thioxo-5-thiazolidinylidene]methyl]-2-[[2-(4-morpholinyl)ethyl]amino]-9-methyl-]
- SI [3]: > 17
- EC50 ([3]; Bovine viral diarrhea virus isolates and strains): 6 µM
- IC50 [4]: > 100 µM

Compound: heparin [Soluble heparin]
- Inhibition of CMV envelope glycoprotein B binding to immobilized heparin [5]: inhibit
